Measured values taken from patent publication US9879243B2, “Culture medium for cell growth and transfection” (LIFE TECHNOLOGIES CORPORATION, priority 2001, dated 2018).

How the values were obtained:
293 cells [1] = assay: Effect of replacement compounds on the growth of 293 cells in 293 SFM without transferrin, three passages; assay type: cell-based, human; settings: third passage
CHO cells = assay: Effect of replacement compounds on the growth of CHO cells in CD CHO medium without transferrin, three passages; assay type: cell-based, Chinese hamster; settings: third passage
Procedure, shortened: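 CHO cells seeded at 1×10^5 viable cells/mL in transferrin-free CD CHO medium, 37 °C, 8% CO2, subcultured every 4 days for three passages. Compounds tested alone or complexed with ferric chloride or ferrous sulfate at 25, 50 and 100 μM; growth as mean percentage of the 5 μg/mL holo-transferrin control at the third passage, duplicate cultures.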

Sp2/0 cells = assay: Effect of replacement compounds on the growth of Sp2/0 cells in CD Hybridoma medium without transferrin, three passages; assay type: cell-based; settings: third passage
293 cells [2] = assay: β-galactosidase expression after transfection (pCMV-SPORT-β-gal, LIPOFECTAMINE 2000) of 293 cells in monolayer culture, 24-well plates; assay type: cell-based, human; settings: Table 8, replacement compounds 25 μM in test media, 24 hrs post-transfection
Protocol: When cultured in suspension, cells were split to 3×10^5 viable cells per ml at each passage. On the week of transfection cells were seeded at 3×10^5 viable cells per ml. After ˜48 hrs of growth (day 2) cells were vortexed for 30 seconds and counted and appropriate volumes used for transfection as described in procedures below.
In addition, the base media comprises 2.4 g/L NaHCO3, 2.98 g/L Hepes, 4 mM L-glutamine and 3 ml/L PLURONIC F-68 (Invitrogen Corp., Carlsbad, Calif.).
The osmolarity is adjusted to from about 275-310 mOsm, preferably about 280 mOsm and the pH is adjusted to from about 7.0 to about 7.45 preferably about 7.4 respectively.
Three wells were set up for each treatment. A volume of media corresponding to 3×10^6 viable cells was centrifuged. The supernatant was removed and the cells re-suspended in 600 μl test media. Each well of a 24 well plate received 200 μl of the re-suspended cells.
To prepare the nucleic acid for the transfection experiments, 93 μl test media+3 μl DNA+24 μl LIPOFECTAMINE 2000 were combined in a microfuge tube and complexed for 30 minutes. A 40 μl aliquot of complex was added to each well. 250 μl test media was added to each well five hours after addition of complex. The final cell concentration was 1×10^6 viable cells per well; the final DNA concentration was 1 μg per 1×10^6 viable cells and the final LIPOFECTAMINE 2000 concentration was 8 μl per 1×10^6 viable cells.
24 hrs post-transfection, samples were collected for β-galactosidase quantitation. The contents of duplicate wells were pooled (i.e. ˜2×10^6 cells for the assay) for each sample and transferred to a microfuge tube. The cells were centrifuged, the supernatant was removed and the cells were re-suspended in 1 ml of D-PBS. The cells were pelleted a second time and re-suspended in 1 ml of D-PBS. The samples were then stored at −70° C. Prior to the assay for β-galactosidase, samples were freeze-thawed a total of five times.
293 cells were grown in monolayer culture in the presence of the various replacement compounds indicated and transfection experiments performed as described above. The results are shown in Table 8 and the values are β-galactosidase activity expressed as nanograms of β-galactosidase per 2×10^6 cells. A comparison was made between the transfection efficiency of DNA complexes formed in D-MEM medium and DNA complexes formed in test medium. […]
For cells transfected in 24-well plates, cells densities used were 1×10^6 viable cells per well.

[3] = 25 μM, control 5 μg/mL human holo-transferrin, iron equimolar where combined
[4] = 50 μM, control 5 μg/mL human holo-transferrin
[5] = 100 μM, control 5 μg/mL human holo-transferrin
[6] = 25 μM, control 5 μg/mL human holo-transferrin

Compound	mean percentage of control growth (293 cells [1]; 5 μM)	mean percentage of control growth (293 cells [1]; 10 μM)	mean percentage of control growth (293 cells [1]; 20 μM)	mean percentage of control growth (CHO cells; 5 μM)	mean percentage of control growth (CHO cells; 10 μM)	mean percentage of control growth (CHO cells; 20 μM)	mean percentage of control growth (Sp2/0 cells; 5 μM)	mean percentage of control growth (Sp2/0 cells; 10 μM)	mean percentage of control growth (Sp2/0 cells; 20 μM)	β-galactosidase activity; D-MEM used for complexing, Test media to re-suspend cells (293 cells [2])	β-galactosidase activity; Test Media used for complexing and to re-suspend cells (293 cells [2])	mean percentage of control growth (293 cells [1]; [3])	mean percentage of control growth (293 cells [1]; [4])	mean percentage of control growth (293 cells [1]; [5])	mean percentage of control growth (CHO cells; [6])	mean percentage of control growth (CHO cells; 50 μM)	mean percentage of control growth (CHO cells; 100 μM)	mean percentage of control growth (Sp2/0 cells; [6])	mean percentage of control growth (Sp2/0 cells; 50 μM)	mean percentage of control growth (Sp2/0 cells; 100 μM)
Deferoxamine Mesylate•Ferric Chloride	101 percentage of control growth	120 percentage of control growth	127 percentage of control growth	50 percentage of control growth	74 percentage of control growth	52 percentage of control growth	0 percentage of control growth	0 percentage of control growth	0 percentage of control growth	154 nanograms of β-galactosidase per 2×10^6 cells	301 nanograms of β-galactosidase per 2×10^6 cells	–	–	–	–	–	–	–	–	–
Ferrous Gluconate•Ascorbic Acid Phosphate	–	–	–	–	–	–	–	–	–	116 nanograms of β-galactosidase per 2×10^6 cells	275 nanograms of β-galactosidase per 2×10^6 cells	86 percentage of control growth	109 percentage of control growth	101 percentage of control growth	91 percentage of control growth	61 percentage of control growth	28 percentage of control growth	92 percentage of control growth	94 percentage of control growth	93 percentage of control growth
O=S(=O)([O-])[O-].[Fe+2] [Ferrous Sulfate, reference compound]	–	–	–	–	–	–	–	–	–	258 nanograms of β-galactosidase per 2×10^6 cells	406 nanograms of β-galactosidase per 2×10^6 cells	71 percentage of control growth	60 percentage of control growth	41 percentage of control growth	88 percentage of control growth	79 percentage of control growth	38 percentage of control growth	91 percentage of control growth	103 percentage of control growth	94 percentage of control growth
